These are literature values, as cited in PMC6530907 (Biochemistry, 2019).

This series has as its target YbtE. As to conditions: cited from earlier work.

For orientation: Ki means the equilibrium dissociation constant of an inhibitor or competing ligand from its target. As to `Nc1ncnc2c1ncn2[C@@H]1O[C@H](COS(=O)(=O)NC(=O)c2ccccc2O)[C@@H](O)[C@H]1O` [compound 1, 5´-O-[N-salicylsulfamoyl]adenosine], the Ki was 0.7 nM.
